Test results as given in PMC7665192, “A natriuretic peptide from Arabidopsis thaliana (AtPNP-A) can modulate catalase 2 activity” (Scientific Reports, 2020).
Positions of bridges follow the written chain, without caps; N, C: chain ends. Residues, ends and D or L forms follow the SMILES beside them. *: point of attachment. Biotin = O=C1N[C@H]2[C@H](CS[C@H]2CCCCC(=O)*)N1

How the values were obtained:
CAT = assay: Total CAT activity in protein extracted from WT seedlings; type: biochemical, Arabidopsis thaliana; conditions: 1 nM
Experimental: (§1) Enzymatic activity of CAT isozymes and total CAT activities of protein extracted from WT and atpnp-a or cat2-2 mutant lines, when indicated sprayed with 1 nM pAtPNP-A or pScr 20 min before harvesting, were determined zymographically and spectrophotometrically, as described in[56]. Relative quantification of intensity of bands corresponding to different CAT isoforms was performed with ImageJ version 1.48 (https://imagej.nih.gov/ij/). Enzymatic activity of the rCAT2 in the presence of absence of 100 nM rAtPNP-A, pAtPNP-A or pScr were determined with the use of Amplex Red catalase assay kit (Invitrogen) according to the manufacturer’s instructions.
(§2) Figure 3 AtPNP-A directly interacts with CAT2 to modulate its enzymatic activity in vitro. (a) Zymogram depicting changes in the enzymatic activity of CAT isoforms extracted from wild type (WT) or cat2-2 knockout mutant seedlings in response to 1 nM pAtPNP-A or pScr. Densitometric semi-quantification of bands corresponding to CAT2, normalized to the loading control (dark-coloured band on zymogram) for WT samples treated with 1 nM pAtPNP-A or pScr (mean ± SD, Student’s t-test, n = 3, P < 0.05). […] (b) Total CAT activity in protein extracted from WT seedlings assayed with Amplex Red catalase assay kit in the presence of 1 nM pAtPNP-A, rAtPNP-A, or pScr. […] (c) Enzymatic activity of rCAT2 in the presence of 100 nM pAtPNP-A, rAtPNP-A, or pScr.

CAT2 = assay: Zymogram of CAT isoforms from treated seedlings; type: in vivo, Arabidopsis thaliana; conditions: 1 nM peptide, sprayed 20 min before harvesting; mean ± SD, n = 3, Student's t-test P < 0.05
Experimental: as §1, §2

bovine liver CAT = target: T1, bovine liver CAT (Bos taurus, UniProt P00432); assay: SPR kinetic analysis, bovine liver CAT immobilized on CM5 chip; type: binding
T1 construct: bovine liver CAT (C-40; Sigma); purchased Sigma C-40; host or cells: bovine liver (tissue-derived enzyme)
T1 sequence (P00432 2-527 limits assumed): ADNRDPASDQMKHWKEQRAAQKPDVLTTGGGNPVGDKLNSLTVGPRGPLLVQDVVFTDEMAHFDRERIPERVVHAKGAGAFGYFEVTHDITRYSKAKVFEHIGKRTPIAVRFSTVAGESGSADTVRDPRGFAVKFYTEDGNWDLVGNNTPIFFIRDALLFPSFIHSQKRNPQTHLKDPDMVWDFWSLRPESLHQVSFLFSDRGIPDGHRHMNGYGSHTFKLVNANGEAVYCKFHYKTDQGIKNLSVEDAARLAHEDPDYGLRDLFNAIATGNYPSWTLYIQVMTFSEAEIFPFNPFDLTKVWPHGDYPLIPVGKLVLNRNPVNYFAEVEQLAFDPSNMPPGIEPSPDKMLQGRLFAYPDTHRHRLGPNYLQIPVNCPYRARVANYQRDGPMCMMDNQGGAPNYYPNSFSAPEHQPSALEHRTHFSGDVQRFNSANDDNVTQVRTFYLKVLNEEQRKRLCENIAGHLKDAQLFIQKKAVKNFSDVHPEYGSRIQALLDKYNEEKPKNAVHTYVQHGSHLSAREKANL
Experimental: (§3) SPR experiments were performed at 20 °C on Biacore T100 instrument operated using Biacore T100 control software (version 2.0.2, GE Healthcare Lifesciences) using Series S CM5 or NTA sensor chips as described in[21]. Kinetic analyses were performed at the flow of 100 μL min^−1 with pAtPNP-A (at 3.78 μM and consecutive twofold dilutions; 11 injections included) employed as a ligand and bovine liver CAT (C-40; Sigma) used as an analyte and immobilized on the active surface of the Series S CM5 sensor chip with amine coupling kit, while the surface regeneration was done with solution of glycine, pH 2.0, and the final sensorgram was generated with Scrubber (BioLogic Software Pty Ltd).

P. syringae = test system: P. syringae; set-up: method as in PMID 32409317, PMID 28401640; conditions: cited from earlier work
rCAT2 = assay: SPR of CAT2 and AtPNP-A recombinant proteins, CM5 chip, both configurations; type: binding, Arabidopsis thaliana; conditions: amine coupling, 20 °C
Experimental: N-terminally 6xHis-tagged AtPNP-A and CAT2 proteins were expressed in BL21 (DE3) One Shot E. coli cells (Life Technologies), purified by affinity chromatography with Ni–NTA beads (Qiagen) and HisTrap HP column (GE Healthcare Lifesciences) as described in[21]. The purity of preparations was verified on 12.5% SDS-PAGE, stained with Coomassie Brilliant Blue (Bio-Rad). Protein identities were confirmed in MS analysis, and protein concentration was determined according to the method of Bradford using BSA as a standard.
as §3
Supplementary Figure S3. In vitro association of AtPNP-A and CAT2 recombinant proteins.
(a) Recombinant protein preparations used in SPR analyses. […]

Compound | Total CAT activity of protein extracts (CAT; WT seedling protein, Amplex Red kit, mean ± SD, n = 3, P < 0.05) | H2O2 breakdown by WT seedling protein extract (CAT; total protein extracted from WT seedlings, n = 3) | CAT2 activity in WT plants (zymogram) (CAT2) | Chi2, average squared residual (bovine liver CAT; SPR kinetic fit, 20 °C) [RU2] | U-value, uniqueness value for kinetic rate constants (bovine liver CAT; SPR kinetic fit, 20 °C) | Specificity of binding to bovine CAT (bovine liver CAT; SPR, both ligand-analyte configurations, amine coupling) | Role in response to P. syringae infection (P. syringae) | SPR binding of recombinant AtPNP-A to CAT2 (rCAT2)
CC(C)C[C@@H]1NC(=O)[C@H](CC(N)=O)NC(=O)[C@H](CC(N)=O)NC(=O)[C@H](CCCCN)NC(=O)[C@H](C(C)C)NC(=O)CNC(=O)[C@H](C(C)C)NC(=O)[C@H](C(C)C)NC(=O)[C@H](CC(C)C)NC(=O)[C@H]([C@@H](C)O)NC(=O)[C@H](CCC(=O)O)NC(=O)[C@H](CCCNC(=N)N)NC(=O)[C@H](CCC(N)=O)NC(=O)[C@H]([C@@H](C)O)NC(=O)CNC(=O)[C@H](Cc2ccc(O)cc2)NC(=O)[C@@H](NC(=O)[C@H](C)NC(=O)[C@H](CO)NC(=O)[C@H](CCCNC(=N)N)NC(=O)[C@@H](NC(=O)[C@H](Cc2ccc(O)cc2)NC(=O)[C@@H]2CCCN2)[C@@H](C)O)CSSC[C@@H](C(=O)NCC(=O)N[C@@H](CCCNC(=N)N)C(=O)N[C@@H](CCCNC(=N)N)C(=O)N[C@@H](Cc2ccc(O)cc2)C(=O)N[C@@H](CCCNC(=N)N)C(=O)N[C@H](C(=O)N[C@@H](CCCNC(=N)N)C(=O)N[C@@H](CCCCNC(=O)CCCC[C@@H]2SC[C@@H]3NC(=O)N[C@@H]32)C(=O)O)C(C)C)NC(=O)[C@H](C)NC(=O)[C@H](CCCNC(=N)N)NC(=O)CNC(=O)[C@H](CC(N)=O)NC(=O)[C@H](CCC(N)=O)NC(=O)[C@H](Cc2c[nH]c3ccccc23)NC1=O [pAtPNP-A] (H-PYTRSACYGTQRETLVVGVKNNLWQNGRACGRRYRVRK(Biotin)-OH; disulfide 7-30; N-terminus and C-terminus assumed) | elevated total CAT activity | more rapid H2O2 breakdown | increased CAT2 activity in WT plants compared to the mutants | 10.4 | 2 | points to a specific interaction |  | 
AtPNP-A: An A. thaliana PNP, termed AtPNP-A (At2g18660; Q9ZV52) |  |  |  |  |  |  | protective role in the response to infection with P. syringae | specific AtPNP-A and CAT2 interaction in vitro
